Test results published in US20240368154A1 (GENOSCO Inc., priority 2023, published 2024).
Where a name gives a salt, the structure may show the parent alone.

Experiments:
[1] = target: T1, Recombinant ROCK1 (amino acids 1-477) (Homo sapiens, UniProt Q13464); test: ROCK inhibition assay, LANCE Ultra TR-FRET kinase assay; format: biochemical; conditions: at Km of ATP (table title), method: 1 mM ATP, 50 nM ULight-CREBtide substrate, 1 hour, room temperature
T1 construct: Recombinant ROCK1 (amino acids 1-477)
T1 sequence (Q13464 1-477): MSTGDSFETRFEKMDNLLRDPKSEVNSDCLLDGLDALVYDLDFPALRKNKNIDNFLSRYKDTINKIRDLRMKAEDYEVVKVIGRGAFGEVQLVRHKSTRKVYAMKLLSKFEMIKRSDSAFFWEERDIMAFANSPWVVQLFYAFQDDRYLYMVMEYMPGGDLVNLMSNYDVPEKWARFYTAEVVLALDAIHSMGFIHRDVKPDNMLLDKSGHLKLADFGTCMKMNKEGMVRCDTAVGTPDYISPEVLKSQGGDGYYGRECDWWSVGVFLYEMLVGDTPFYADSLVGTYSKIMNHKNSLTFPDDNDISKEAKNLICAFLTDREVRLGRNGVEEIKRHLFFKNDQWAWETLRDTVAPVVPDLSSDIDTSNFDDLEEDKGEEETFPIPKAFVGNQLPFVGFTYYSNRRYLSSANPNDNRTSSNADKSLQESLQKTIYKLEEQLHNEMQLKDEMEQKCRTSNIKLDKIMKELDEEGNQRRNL
Experimental: (§1) Kinase IC50 was determined through an in vitro assay based on LANCE Ultra TR-FRET (Time-Resolved Fluorescence Resonance Energy Transfer) homogeneous technologies method (Perkin Elmer). Recombinant ROCK1 (amino acids 1-477) and ROCK2 (amino acids 5-554) proteins were purchased from Carna Biosciences and SignalChem. Compound activities were measured by Envision and IC50s were calculated. The assays were performed in white LUMITRAC™ 200 96 well half-area microplates from Greiner Bio-One. The kinase reaction buffer consisted of 50 mM HEPES pH 7.5, 1 mM EGTA, 10 mM MgCl2, 2 mM DTT and 0.01% Tween-20. Kinases were incubated with 50 nM (ULight-CREBtide) substrate in the presence of 1 mM (ROCK1) or 1 mM (ROCK2) of ATP. The kinase reaction was carried out for 1 hour before addition of a stopping buffer to a final of 10 mM EDTA and 0.6 nM of LANCE Ultra Europium anti-phospho-CREB (Ser133) antibody (PerkinElmer TRF0200) in LANCE detection buffer. All assay incubations were performed at room temperature, and the microplates were sealed with polyester film during that time. The reaction was incubated for 1 hour, and the signal was read in Envision in TR-FRET mode (excitation at 320 nm and emission at 615/665 nm).
(§2) As used herein, a way to describe potency of inhibitory activity (nM) is a value of inhibitory activity at 50% (IC50).

[2] = target: T2, Recombinant ROCK2 (amino acids 5-554) (Homo sapiens, UniProt O75116); test: as above; format: biochemical; conditions: at Km of ATP (table title), method: 1 mM ATP, 50 nM ULight-CREBtide substrate, 1 hour, room temperature
T2 construct: ROCK2 (amino acids 5-554)
T2 sequence (O75116 5-554): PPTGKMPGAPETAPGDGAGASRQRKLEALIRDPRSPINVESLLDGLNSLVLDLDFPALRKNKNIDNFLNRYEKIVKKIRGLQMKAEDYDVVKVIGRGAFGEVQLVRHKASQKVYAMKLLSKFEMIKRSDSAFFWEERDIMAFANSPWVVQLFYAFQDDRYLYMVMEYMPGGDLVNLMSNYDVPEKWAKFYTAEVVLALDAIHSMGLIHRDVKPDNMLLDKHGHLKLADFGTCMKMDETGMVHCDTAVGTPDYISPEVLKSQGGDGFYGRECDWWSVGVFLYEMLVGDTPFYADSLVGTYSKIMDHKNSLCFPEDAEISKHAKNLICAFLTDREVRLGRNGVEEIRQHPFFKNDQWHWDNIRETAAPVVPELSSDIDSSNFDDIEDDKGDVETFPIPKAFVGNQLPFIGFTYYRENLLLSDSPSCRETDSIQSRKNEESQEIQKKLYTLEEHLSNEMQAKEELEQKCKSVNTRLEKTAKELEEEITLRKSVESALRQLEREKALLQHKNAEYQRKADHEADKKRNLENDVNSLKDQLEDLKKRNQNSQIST
Experimental: as §1, §2

## COc1n[nH]cc1-c1ccc2c(C(=O)[C@H]3COc4ccc(Cl)cc4C3)cn(CCO)c2c1 (single isomer, unassigned) [Compound 2-19]
[1]
  IC50: > 501 nM
[2]
  IC50: 51 to 500 nM

## C[C@@H](O)Cn1cc(C(=O)C2COc3ccc(F)cc3C2)c2cnc(-c3cn[nH]c3F)nc21 (stereo partly drawn) [Compound 1-48]
[1]
  IC50: < 10 nM
[2]
  IC50: < 10 nM

## O=C(c1cn(CCO)c2cc(-c3c[nH]nc3Cl)ccc12)C1COc2ccccc2C1 (stereo not drawn) [Compound 2-6]
[1]
  IC50: 11 to 50 nM
[2]
  IC50: < 10 nM

## O=C(c1cn(CCO)c2cc(-c3cn[nH]c3)ccc12)C1COc2ccccc2C1 (stereo not drawn) [Compound 2-23]
[1]
  IC50: 11 to 50 nM
[2]
  IC50: 11 to 50 nM

## O=C(c1cn(CC2CC(O)C2)c2cc(-c3cn[nH]c3F)ncc12)C1COc2ccc(Cl)cc2C1 (stereo not drawn) [Compound 1-37]
[1]
  IC50: 51 to 500 nM
[2]
  IC50: 11 to 50 nM

## C[C@@H](O)Cn1cc(C(=O)[C@@H]2COc3ccc(F)cc3C2)c2cnc(-c3cn[nH]c3F)nc21 [Compound 1-49]
[1]
  IC50: < 10 nM
[2]
  IC50: < 10 nM

## CC(C)c1n[nH]cc1-c1ccc2c(C(=O)C3COc4ccc(F)cc4C3)nn(CCO)c2c1 (stereo not drawn) [Compound 2-28]
[1]
  IC50: > 501 nM
[2]
  IC50: > 501 nM

## CC(C)(O)Cn1cc(C(=O)[C@@H]2COc3ccc(Cl)cc3C2)c2cnc(-c3c[nH]nc3Cl)cc21 [Compound 1-19]
[1]
  IC50: < 10 nM
[2]
  IC50: < 10 nM

## COc1ccc2c(c1)CC(C(=O)c1cn(CC(C)(C)O)c3cc(-c4cn[nH]c4Cl)ncc13)CO2 (stereo not drawn) [Compound 1-29]
[1]
  IC50: < 10 nM
[2]
  IC50: < 10 nM

## Cc1n[nH]cc1-c1ccc2c(C(=O)C3COc4ccc(F)cc4C3)cn(CCO)c2n1 (stereo not drawn) [Compound 1-15]
[1]
  IC50: < 10 nM
[2]
  IC50: < 10 nM

## C[C@H](O)Cn1cc(C(=O)[C@@H]2COc3ccc(Cl)cc3C2)c2cnc(-c3cn[nH]c3Cl)cc21 [Compound 1-11]
[1]
  IC50: 11 to 50 nM
[2]
  IC50: 11 to 50 nM

## O=C(c1cn(CCO)c2cc(-c3cn[nH]c3)ccc12)C1COc2cc(F)ccc2O1 (stereo not drawn) [Compound 2-11]
[1]
  IC50: 51 to 500 nM
[2]
  IC50: < 10 nM

## COc1[nH]ncc1-c1ncc2c(C(=O)C3COc4ccc(Cl)cc4C3)cn(C[C@H](C)O)c2n1 (stereo partly drawn) [Compound 1-53]
[1]
  IC50: 51 to 500 nM
[2]
  IC50: 11 to 50 nM

## COc1n[nH]cc1-c1ccc2c(C(=O)[C@@H]3COc4ccc(Cl)cc4C3)cn(CCO)c2c1 (single isomer, unassigned) [Compound 2-18]
[1]
  IC50: 11 to 50 nM
[2]
  IC50: < 10 nM

## CC(O)Cn1cc(C(=O)C2COc3ccc(F)cc3C2)c2cnc(-c3c[nH]nc3Cl)cc21 (stereo not drawn) [Compound 1-14]
[1]
  IC50: < 10 nM
[2]
  IC50: < 10 nM

## O=C(c1nn(CCO)c2cc(-c3cn[nH]c3)ccc12)C1COc2ccc(Cl)cc2O1 (stereo not drawn) [Compound 3-4]
[1]
  IC50: 51 to 500 nM
[2]
  IC50: < 10 nM

## O=C(c1cn(CCO)c2cc(-c3c[nH]nc3Cl)ccc12)C1COc2ccccc2O1 (stereo not drawn) [Compound 2-4]
[1]
  IC50: < 10 nM
[2]
  IC50: < 10 nM

## COc1ccc2c(c1)OC(C(=O)c1cn(CCO)c3cc(-c4cn[nH]c4)ccc13)CO2 (stereo not drawn) [Compound 2-14]
[1]
  IC50: 11 to 50 nM
[2]
  IC50: < 10 nM

## CC(O)Cn1cc(C(=O)C2COc3ccc(Cl)cc3C2)c2cnc(-c3c[nH]nc3Cl)cc21 (stereo not drawn) [Compound 1-6]
[1]
  IC50: 11 to 50 nM
[2]
  IC50: < 10 nM

## O=C(c1cn(CCO)c2nc(-c3c[nH]nc3Cl)ccc12)C1COc2ccc(Cl)cc2C1 (stereo not drawn) [Compound 1-4]
[1]
  IC50: 11 to 50 nM
[2]
  IC50: < 10 nM

## CC(C)(O)Cn1cc(C(=O)[C@H]2COc3ccc(Cl)cc3C2)c2cnc(-c3c[nH]nc3Cl)cc21 [Compound 1-18]
[1]
  IC50: > 501 nM
[2]
  IC50: 51 to 500 nM

## CC(O)Cn1cc(C(=O)C2COc3ccc(Cl)cc3C2)c2ccc(-c3c[nH]nc3Cl)cc21 (stereo not drawn) [Compound 1-39]
[1]
  IC50: 11 to 50 nM
[2]
  IC50: 11 to 50 nM

## O=C(c1cn(CCO)c2cc(-c3c[nH]c4ncccc34)ccc12)C1COc2ccccc2O1 (stereo not drawn) [Compound 2-3]
[1]
  IC50: 51 to 500 nM
[2]
  IC50: 11 to 50 nM

## COc1ccc2c(c1)CC(C(=O)c1cn(CCO)c3nc(-c4c[nH]nc4Cl)ccc13)CO2 (stereo not drawn) [Compound 1-22]
[1]
  IC50: < 10 nM
[2]
  IC50: < 10 nM

## C[C@H](O)Cn1cc(C(=O)[C@@H]2COc3ccc(Cl)cc3C2)c2cnc(-c3cn[nH]c3Cl)cc21 [Compound 1-12]
[1]
  IC50: 11 to 50 nM
[2]
  IC50: < 10 nM

## O=C(c1nn(CCO)c2cc(-c3cn[nH]c3)ccc12)C1COc2ccc(F)cc2C1 (stereo not drawn) [Compound 3-1, (6-fluorochroman-3-yl)(1-(2-hydroxyethyl)-6-(1H-pyrazol-4-yl)-1H-indazol-3-yl)methanone]
[1]
  IC50: 11 to 50 nM
[2]
  IC50: < 10 nM

## C[C@@H](O)Cn1cc(C(=O)C2COc3ccc(F)cc3C2)c2cnc(-c3c[nH]nc3Cl)cc21 (stereo partly drawn) [Compound 1-21]
[1]
  IC50: < 10 nM
[2]
  IC50: < 10 nM

## C[C@H](O)Cn1cc(C(=O)C2COc3ccc(F)cc3C2)c2cnc(-c3c[nH]nc3Cl)cc21 (stereo partly drawn) [Compound 1-20]
[1]
  IC50: < 10 nM
[2]
  IC50: < 10 nM

## CC(C)(O)Cn1cc(C(=O)[C@@H]2COc3ccc(Cl)cc3C2)c2cnc(-c3c[nH]nc3Cl)cc21 [Compound 1-32]
[1]
  IC50: 11 to 50 nM
[2]
  IC50: < 10 nM

## COc1n[nH]cc1-c1ccc2c(C(=O)[C@@H]3COc4ccc(F)cc4C3)cn(CCO)c2c1 (single isomer, unassigned) [Compound 2-21]
[1]
  IC50: 11 to 50 nM
[2]
  IC50: < 10 nM

## COc1ccc2c(c1)CC(C(=O)c1cn(CCO)c3cc(-c4cn[nH]c4F)ncc13)CO2 (stereo not drawn) [Compound 1-24]
[1]
  IC50: < 10 nM
[2]
  IC50: < 10 nM

## COc1n[nH]cc1-c1ccc2c(C(=O)C3COc4ccc(Cl)cc4C3)cn(C[C@H](C)O)c2c1 (stereo partly drawn) [Compound 1-43]
[1]
  IC50: 51 to 500 nM
[2]
  IC50: 11 to 50 nM

## O=C(c1cn(CCO)c2cc(-c3cn[nH]c3)ccc12)C1COc2cc(Cl)ccc2O1 (stereo not drawn) [Compound 2-10]
[1]
  IC50: 51 to 500 nM
[2]
  IC50: 11 to 50 nM

## COc1n[nH]cc1-c1cc2c(cn1)c(C(=O)C1COc3ccc(Cl)cc3C1)cn2CCO (stereo not drawn) [Compound 1-59, hydrochloride]
[1]; hydrochloride
  IC50: 51 to 500 nM
[2]; hydrochloride
  IC50: 11 to 50 nM

## COc1n[nH]cc1-c1ccc2c(C(=O)C3COc4ccc(Cl)cc4C3)cn(CCO)c2c1 (racemic) [Compound 2-17]
[1]
  IC50: 11 to 50 nM
[2]
  IC50: 11 to 50 nM

## COc1ccc2c(c1)CC(C(=O)c1cn(C[C@H](C)O)c3cc(-c4cn[nH]c4F)ncc13)CO2 (stereo partly drawn) [Compound 1-25]
[1]
  IC50: 11 to 50 nM
[2]
  IC50: < 10 nM

## COc1n[nH]cc1-c1ccc2c(C(=O)C3Cc4ccccc4O3)nn(CCO)c2c1 (stereo not drawn) [Compound 2-30]
[1]
  IC50: 51 to 500 nM
[2]
  IC50: 51 to 500 nM

## O=C(c1cn(CCO)c2cc(-c3cn[nH]c3)ccc12)C1COc2ccccc2O1 (stereo not drawn) [Compound 2-1, 2,3-Dihydro-1,4-benzodioxin-3-yl-[1-(2-hydroxyethyl)-6-(1H-pyrazol-4-yl)indol-3-yl]methanone]
[1]
  IC50: < 10 nM
[2]
  IC50: < 10 nM

## COc1n[nH]cc1-c1ccc2c(C(=O)[C@H]3COc4ccc(F)cc4C3)cn(CCO)c2c1 (single isomer, unassigned) [Compound 2-22]
[1]
  IC50: > 501 nM
[2]
  IC50: 51 to 500 nM

## C[C@H](O)Cn1cc(C(=O)C2COc3ccc(Cl)cc3C2)c2cnc(-c3cn[nH]c3Cl)nc21 (stereo partly drawn) [Compound 1-45]
[1]
  IC50: 11 to 50 nM
[2]
  IC50: < 10 nM

## COc1ccc2c(c1)CC(C(=O)c1cn(CCO)c3cc(-c4c[nH]nc4Cl)ncc13)CO2 (stereo not drawn) [Compound 1-23]
[1]
  IC50: < 10 nM
[2]
  IC50: < 10 nM

## CC(C)(O)Cn1cc(C(=O)[C@@H]2COc3ccc(Cl)cc3C2)c2cnc(-c3c[nH]nc3Cl)cc21 [Compound 1-17]
[1]
  IC50: < 10 nM
[2]
  IC50: < 10 nM

## COc1n[nH]cc1-c1ccc2c(C(=O)C3COc4ccc(Cl)cc4C3)nn(C[C@H](C)O)c2c1 (stereo partly drawn) [Compound 2-35]
[1]
  IC50: 51 to 500 nM
[2]
  IC50: 11 to 50 nM

## COc1n[nH]cc1-c1cc2c(cn1)c(C(=O)C1COc3ccc(Cl)cc3C1)cn2CCO (stereo not drawn) [Compound 1-1]
[1]
  IC50: > 501 nM
[2]
  IC50: > 501 nM

## O=C(c1nn(CCO)c2cc(-c3cn[nH]c3)ccc12)C1COc2ccc(F)cc2O1 (stereo not drawn) [Compound 3-3]
[1]
  IC50: 11 to 50 nM
[2]
  IC50: < 10 nM
